Assay results taken from patent publication US20070155824A1, “USE OF BENZO-FUSED HETEROCYCLE SULFAMIDE DERIVATIVES FOR DISEASE MODIFICATION / EPILEPTOGENESIS” (priority 2005, published 2007).

Assays:
[1] = tested on: amygdala kindled rat model of partial epilepsy; test: In Vivo, Amygdala Kindling Assay; set-up: species or system Sprague-Dawley rats; conditions: rats
Text: The development of amygdala kindling is an established model of epileptogenesis. (Amano K, Hamada K, Yagi K, Seino M. Antiepileptic effects of topiramate on amygdaloid kindling in rats. Epilepsy Res. 1998 Jul;31(2):123-8; Barton M E, White H S. The effect of CGX-1007 and CI-1041, novel NMDA receptor antagonists, on kindling acquisition and expression. Epilepsy Res. 2004 Mar;59(1):1-12; Loscher W, Honack D, Rundfeldt C. Antiepileptogenic effects of the novel anticonvulsant levetiracetam (ucb L059)in the kindling model of temporal lobe epilepsy. J Pharmacol Exp Ther. 1998 Feb;284(2):474-9; McNamara J O. Analyses of the molecular basis of kindling development. Psychiatry Clin Neurosci. 1995 June; 49(3):S175-8. Review.; Morimoto K, Katayama K, Inoue K, Sato K. Effects of competitive and noncompetitive NMDA receptor antagonists on kindling and LTP. Pharmacol Biochem Behav. 1991 Dec;40(4):893-9; Racine, R. J. 1972. Modification of seizure activity by electrical stimulation. II. Motor seizure. Electroencephalogr. Clin. Neurophysiol. 32, 281-294). The kindled rat model of partial epilepsy is an accepted model of epileptogenesis (McNamara J O. Analyses of the molecular basis of kindling development. Psychiatry Clin Neurosci. 1995 Jun;49(3):S1 75-8. Review.).
Briefly, the assay procedure was as follows. Adult male, Sprague-Dawley rats weighing between 250-300 g were obtained from Charles River, Wilmington, Mass. All the animals were housed on a 12:12 light dark cycle and permitted free access to both food (Prolab RMH 3000) and water except when removed from the home cage for experimental procedures. Animals were cared for in a matter consistent with the recommendations detailed in the National Research Council Publication, “Guide for the Care and Use of Laboratory Animals” in a temperature controlled, pesticide-free facility. Kindling stimulations were routinely performed between 9 AM-2 PM to avoid any circadian variations.
Compound #8 was triturated in a small volume of 0.5% methylcellulose, sonicated for 10 min, and brought to a final volume with 0.5% methylcellulose. Compound #8 was administered systemically (i.p.) in a volume of 0.04 ml/10 g body weight and all tests were conducted at the pre-determined time of peak effect of 0.5 hours after i.p. administration.
The ability of Compound #8 to block the expression of amygdala kindled seizures was determined as follows. Rats were anaesthetized with a ketamine (120 mg/kg, i.p.) and xylazine (12 mg/kg, i.p.) cocktail. […]
Amygdala kindling was then performed according to the following protocol. […] The behavioral seizure score and AD duration was recorded for rats in each treatment group. […]

melting point [°C] | Structure (SMILES) | behavioral seizure score (Racine scale) at the conclusion of the drug- and stimulus-free period ([1]; 75 mg/kg i.p. 30 min before daily amygdala stimulation (200 μA, 2 s) for up to 13 days, re-challenge without drug after one-week drug- and stimulus-free period, vehicle=4.6±0.24) | acquisition of the full generalized kindled seizure ([1]; 75 mg/kg i.p. during kindling acquisition) | after-discharge (AD) duration over the kindling acquisition phase vs vehicle ([1]; 75 mg/kg i.p., daily stimulation, progressive increase in both groups) | delay of acquisition of kindling ([1]; stimulated in the absence of drug after the drug-free week, seizure score rose parallel to vehicle)
 | NS(=O)(=O)NC[C@H]1COc2cc(Cl)ccc2O1 [Compound #8, (2S)-(−)-N-(6-Chloro-2,3-dihydro-benzo[1,4]dioxin-2-ylmethyl)-sulfamide] | 1.4±0.40 | prevented the acquisition of the full generalized kindled seizure | No statistical difference between treatment groups | delayed the acquisition of kindling by several days
100 to 101 | NS(=O)(=O)NCC1CCc2ccccc2O1 (centres unmarked) [Compound #10, Chroman-2-ylmethylsulfamide] |  |  |  | 
